Results on two compounds are retold here after patent publication US11878986B2, “Poly heterocyclic conjugates and their pharmaceutical uses” (National Health Research Institutes, priority 2020, dated 2024).

The experiment concerns human pancreatic cancer cells (MIA PaCa-2). The experiment is described as follows: Tumor growth inhibition in subcutaneous xenograft model, MIA PaCa-2. It counts as in vivo, mouse. Conditions: s.c. xenograft in athymic nude mice; i.v. 1-5 mg/kg, once/week or twice/week for 1-3 weeks; vs vehicle control, p<0.05; FIG. 1. As to the method:
The efficacy of compounds 2 and 11 in inhibiting the growth of human pancreatic cancer cells (MIA PaCa-2) and the efficacy of compounds 1-4, 23, 25, and 26 in inhibiting the growth of human triple-negative breast cancer cells (HCC1806) were assessed as follows.
Male and female athymic NU-Fox1^nu nude mice (BioLASCO, Taiwan) at age 4-5 weeks were housed in sterilized cages equipped with an air filter and sterile bedding materials at the Laboratory Animal Center of the National Health Research Institutes (NHRI), which is an AAALAC International accredited facility. All the mice were fed with sterilized water and chow ad libitum under 12-hr light/12-hr dark cycle throughout the study. […]
The MIA PaCa-2 and HCC1806 cells were suspended in phenol-red-free culture medium/Matrigel™ (1/1) and implanted subcutaneously (s.c.) into the left flank of the nude mice (1×10^6 cells/flank) via a 1 mL syringe. Tumor dimensions were measured twice a week using a digital caliper and the tumor volume (mm^3) was calculated based on the formula, i.e., volume=(length×width^2)/2.
Tumor-bearing mice were randomized (n=7-8 per group) when the average tumor volume reached approximately 200 mm^3. […] Tumor size and body weight of each animal were measured twice a week. Data was expressed as the mean or mean±standard error of the mean (SEM). […]

For the compound `CCCCCC(=O)Nc1cccc(CN(Cc2cc(CN(Cc3ccccn3)Cc3cccc(NC(=O)CCCCC)n3)cc(OCCCCN(Cc3ccc(-c4ccccc4)cc3)C(=O)COCCOCCOCC(=O)NCc3ccc(CNC(=O)CCSSCCC(=O)N(C)[C@H](C)C(=O)O[C@@H]4CC(=O)N(C)c5cc(cc(OC)c5Cl)C/C(C)=C/C=C/[C@H](OC)[C@]5(O)C[C@@H](OC(=O)N5)[C@H](C)[C@H]5O[C@]54C)cc3)c2)Cc2ccccn2)n1` [Compound 2], the “inhibition of the growth of MIA PaCa-2 (tumor volume)” value was “significantly inhibited the growth”.
For `CCCCCC(=O)Nc1cccc(CN(Cc2cc(CN(Cc3ccccn3)Cc3cccc(NC(=O)CCCCC)n3)cc(OCCCCNC(=O)COCCOCCOCC(=O)NCc3ccc(CNC(=O)CCSSCCC(=O)N(C)[C@H](C)C(=O)O[C@@H]4CC(=O)N(C)c5cc(cc(OC)c5Cl)C/C(C)=C/C=C/[C@H](OC)[C@]5(O)C[C@H](OC(=O)N5)[C@H](C)C5O[C@@]54C)cc3)c2)Cc2ccccn2)n1` (some centres unmarked) [Compound 11] the value was “significantly inhibited the growth”.
